Measured values reported in patent US12441695B2, “Substituted thiadiazinone dioxide and preparation method therefor, herbicidal composition, and application therefor” (Qingdao Kingagroot Chemical Compound Co., Ltd., priority 2019, dated 2025).

Experiments:
[1] = test system: major crops (wheat, corn, rice, soybean, cotton, oilseed rape, millet, sorghum); experiment: Experiment on weeding effect in post-emergence stage (crops); assay type: in vivo; settings: 600 g/ha active ingredient plus water 450 kg/ha, 3 weeks after application; for corn plant damage level (growth control rate): crop corn; for rice plant damage level (growth control rate): crop rice; for soybean plant damage level (growth control rate): crop soybean
Summary of the method: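 Weed and crop seeds were sown in soil-filled pots, covered with 0.5–2 cm soil and grown in a greenhouse. Plants were sprayed 2–3 weeks after sowing using a spray tower, with compound dissolved in acetone plus Tween 80 and diluted in water. Effect was expressed as fresh-weight growth control rate.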

[2] = test system: monocotyledonous and dicotyledonous weeds; experiment: Experiment on weeding effect in post-emergence stage (weeds); assay type: in vivo; settings: 600 g/ha active ingredient plus water 450 kg/ha, 3 weeks after application, fresh weight control rate; for Amaranthus retroflexus activity level (growth control rate): fomesafen-resistant Amaranthus retroflexus
Summary of the method: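 Greenhouse pot-grown weeds and crops sprayed post-emergence 2–3 weeks after sowing with compound in acetone/Tween 80/water. Fresh-weight growth control scored after 3 weeks on a 0–5 scale (5: >85%, 0: <5%).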

[3] = test system: gramineous weeds; settings: in vivo; cited from earlier work

SMILES	corn plant damage level (growth control rate) [1]	rice plant damage level (growth control rate) [1]	soybean plant damage level (growth control rate) [1]	Amaranthus retroflexus activity level (growth control rate) [2]	Echinochloa crus-galli activity level (growth control rate) [2]	Digitaria sanguinalis activity level (growth control rate) [2]	Setaria viridis activity level (growth control rate) [2]	effect on gramineous weeds [3]
CCS(=O)(=O)N1c2ccc(F)cc2C(=O)N(C(C)C)S1(=O)=O [Compound 195]	0 (Level 0: growth control rate is less than 5%)	0 (Level 0: growth control rate is less than 5%)	0 (Level 0: growth control rate is less than 5%)	3 (Level 3: growth control rate is greater than or equal to 40% and less than 60%)	3 (Level 3: growth control rate is greater than or equal to 40% and less than 60%)	–	–	–
CCOC(=O)OC(C)N1c2c(Cl)cc(F)cc2C(=O)N(C(C)C)S1(=O)=O (stereo not shown) [Compound 153]	0 (Level 0: growth control rate is less than 5%)	0 (Level 0: growth control rate is less than 5%)	1 (Level 1: growth control rate is greater than or equal to 500 and less than 200%)	5 (Level 5: growth control rate is above 85%)	5 (Level 5: growth control rate is above 85%)	5 (Level 5: growth control rate is above 85%)	5 (Level 5: growth control rate is above 85%)	–
C=CC(=O)N1c2ccc(F)cc2C(=O)N(C(C)C)S1(=O)=O [Compound 183]	0 (Level 0: growth control rate is less than 5%)	0 (Level 0: growth control rate is less than 5%)	0 (Level 0: growth control rate is less than 5%)	3 (Level 3: growth control rate is greater than or equal to 40% and less than 60%)	–	–	–	–
CCCS(=O)(=O)N1c2ccc(F)cc2C(=O)N(C(C)C)S1(=O)=O [Compound 196]	0 (Level 0: growth control rate is less than 5%)	–	0 (Level 0: growth control rate is less than 5%)	5 (Level 5: growth control rate is above 85%)	5 (Level 5: growth control rate is above 85%)	3 (Level 3: growth control rate is greater than or equal to 40% and less than 60%)	5 (Level 5: growth control rate is above 85%)	–
CCCCOC(=O)N1c2c(F)cc(F)cc2C(=O)N(C(C)C)S1(=O)=O [Compound 220]	1 (Level 1: growth control rate is greater than or equal to 500 and less than 200%)	–	–	4 (Level 4: growth control rate is greater than or equal to 60% and less than 85%)	5 (Level 5: growth control rate is above 85%)	3 (Level 3: growth control rate is greater than or equal to 40% and less than 60%)	5 (Level 5: growth control rate is above 85%)	–
CC(C)N1C(=O)c2ccccc2NS1(=O)=O [bentazone]	–	–	–	–	–	–	–	ineffective
CCCCCCCCSC(=O)N1c2c(F)cc(F)cc2C(=O)N(C(C)C)S1(=O)=O [Compound 222]	0 (Level 0: growth control rate is less than 5%)	0 (Level 0: growth control rate is less than 5%)	–	5 (Level 5: growth control rate is above 85%)	–	–	–	–
CCCS(=O)(=O)N1c2c(F)cc(F)cc2C(=O)N(C(C)C)S1(=O)=O [Compound 229]	1 (Level 1: growth control rate is greater than or equal to 500 and less than 200%)	–	–	3 (Level 3: growth control rate is greater than or equal to 40% and less than 60%)	–	–	–	–
COCC(=O)N1c2ccc(F)cc2C(=O)N(C(C)C)S1(=O)=O [Compound 185]	0 (Level 0: growth control rate is less than 5%)	0 (Level 0: growth control rate is less than 5%)	0 (Level 0: growth control rate is less than 5%)	3 (Level 3: growth control rate is greater than or equal to 40% and less than 60%)	–	–	–	–
CC(C)N1C(=O)c2cc(F)ccc2N(C)S1(=O)=O [Compound 49]	0 (Level 0: growth control rate is less than 5%)	0 (Level 0: growth control rate is less than 5%)	0 (Level 0: growth control rate is less than 5%)	5 (Level 5: growth control rate is above 85%)	3 (Level 3: growth control rate is greater than or equal to 40% and less than 60%)	–	3 (Level 3: growth control rate is greater than or equal to 40% and less than 60%)	–
CC(=O)N1c2c(Br)cc(F)cc2C(=O)N(C(C)C)S1(=O)=O [Compound 154]	0 (Level 0: growth control rate is less than 5%)	0 (Level 0: growth control rate is less than 5%)	1 (Level 1: growth control rate is greater than or equal to 500 and less than 200%)	5 (Level 5: growth control rate is above 85%)	5 (Level 5: growth control rate is above 85%)	5 (Level 5: growth control rate is above 85%)	5 (Level 5: growth control rate is above 85%)	–
CC(C)OC(=O)OC(C)N1c2c(F)cc(F)cc2C(=O)N(C(C)C)S1(=O)=O (racemic) [Compound 226]	1 (Level 1: growth control rate is greater than or equal to 500 and less than 200%)	0 (Level 0: growth control rate is less than 5%)	–	5 (Level 5: growth control rate is above 85%)	–	–	–	–
CCC(=O)N1c2c(F)cc(F)cc2C(=O)N(C(C)C)S1(=O)=O [Compound 214]	0 (Level 0: growth control rate is less than 5%)	–	–	5 (Level 5: growth control rate is above 85%)	4 (Level 4: growth control rate is greater than or equal to 60% and less than 85%)	5 (Level 5: growth control rate is above 85%)	5 (Level 5: growth control rate is above 85%)	–
